The test system of data set [1] is Cortical cell cultures. Description: NMDA and kainate-induced toxicity, MTT assay of cell viability. The class given is cell-based, rat. The note with it: for protection of neuron from excitotoxicity induced by combination treatment with kainate and NMDA: 100 μM NMDA and 100 μM kainate for 24 h, monotherapy, FIG. 1A, B. The procedure:
Cortical cell cultures were prepared from fetal rats of the Wistar strain (gestational age of 17 to 19 days, Charles River Japan, Kanagawa, Japan). The cortex was dissected and kept in Neurobasal medium (Invitrogen Corp., Carlsbad, Calif., USA) containing 2% B27 supplement (Invitrogen), 25 μM 2-mercaptoethanol (Wako), 0.5 mM L-glutamine (Invitrogen) and ×1/100 volume of antibiotic-antimycotic (Invitrogen), then incubated at 37° C. for 30 min in Ca^2+/Mg^2+ free Hank's balanced salt solution (MSS; 10 mM HEPES, pH 7.3) containing 0.25% trypsin (Invitrogen) and 0.2 mg/ml deoxyribonuclease (DNase) (Sigma). The cortical tissues were dissociated to single cells by gentle trituration. The cell suspension was centrifuged at 310×g for 3 min and the resulting pellets were resuspended in the medium described above.
The cells were plated at an initial cell density of 5×10^5 cells/cm^2 in poly-L-lysine (Sigma)-coated 96-well plates. The cells were cultured in a CO2 incubator (5% (v/v), at 37° C. in the Neurobasal medium described above for 7 days, and cultured following 4 days in culture medium without antioxidant B27 supplement and 2-mercaptoethanol. The cultures were exposed to 100 μM of N-methyl-D-aspartate (NMDA)(Sigma) and 100 μM of kainate (Sigma) for 24 h at 37° C. The cells were treated with perampanel (0.03, 0.3, 3 or 30 μM) and memantine HCl (0.1, 1, 10 or 100 μM) for 24 h before and during the exposure to these agonists. In the combination experiment, perampanel at […] or memantine at 10 μM or its combination was used.
Viability of cells grown in 96-well plates was measured by 3-[4,5-dimethylthylthiazol-2-yl]-2,5-diphenyltetrazolium bromide (MTT) assay. The 10 μl of 8 mg/ml MTT (Sigma) solution in D-PBS(−) (Dulbecco's phosphate-buffered saline, Sigma) was added to each well. During 10 min incubation at 37° C., the active dehydrogenase in viable mitochondria reduces the tetrazolium ring of MTT, forming a blue-colored precipitate. The cells were lysed and the precipitate was dissolved in […] of MTT solubilizing buffer containing 20% sodium dodecyl sulfate (SDS: Wako) in 50% N,N-dimethyl formamide at pH 4.7, and quantified spectrophotometrically at 550-690 nm.
Wells without cells, containing only the medium and MTT solution, were measured to obtain the background value, which was subtracted from measured values at 550-690 nm, as follows: % of Recovery=(sample−NMDA/Kainate treated control)/(non-treated control−NMDA/Kainate treated control)×100.
The data were analyzed with one-way analysis of variance (ANOVA) followed by Dunnett's multiple comparison test using the software package SAS ver. 8.2 (SAS Institute Japan Ltd., Tokyo, Japan).
(Formazan colour is commonly taken as a measure of viable cells.)

A short description of data set [2]: Pharmacokinetic study of memantine, plasma concentration after single dose. The class given is in vivo, human. The note with it: corresponds to 20-25 ng/ml at 20 mg single dose. As for the experimental part: The efficacy of memantine in a variety of dementias has been shown in clinical trials. Memantine is considered to be a promising neuroprotective drug for the treatment of dementias, particularly Alzheimer's disease (Jain K K, Evaluation of memantine for neuroprotection in dementia. Expert Opin Investig Drugs 2000; 9(6): 1397-406.). Clinical dosage of mamentine is 20 mg/day. Maximal plasma concentration of memantine at 20 mg was at around 20-25 ng/ml after single dose treatment (Periclou A, et al., Pharmacokinetic study of memantine in healthy and renally impaired subjects. Clin Pharmacol Ther 2006; 79: 134-43.). This plasma concentration roughly correspond to 0.1 μM.

For data set [3] the following is noted: 20 mg, single dose treatment; cited from earlier work.
For data set [4] the following is noted: 40 mg/day compared to 20 mg/day; cited from earlier work.
Data set [5] relates to Alzheimer's disease. Conditions: Alzheimer's disease trials; cited from earlier work.
The mark [6] stands for this setting: clinically relevant concentration, roughly 0.1 μM.

These results are taken from US20100099714A1, “AMPA and NMDA Receptor Antagonists for Neurodegenerative Diseases” (Eisai R&D Management Co., Ltd., priority 2007, published 2010).

On to `C[C@]12CC3C[C@](C)(C1)C[C@@](N)(C3)C2` [memantine, 1-amino-3,5-dimethyl-adamantane], for which the “protection of neuron from excitotoxicity induced by combination treatment with kainate and NMDA” value in data set [1] is reported as “protected neuron from excitotoxicity”. In addition, in data set [1] (setting [6]), the “effect size at clinically relevant concentration” value was “small and far below maximal effect”; the “neuroprotective effect at clinically relevant concentration” value is on record as “significant neuroprotective effect”. Besides, in data set [2], the “plasma concentration converted to molar” value is around 100 nM. Moreover, in data set [3], the Maximal plasma concentration was 20 to 25 ng/mL. Besides, the “risk of adverse event” value in data set [4] is listed as “higher risk of adverse event”. Besides, the clinical effect result in data set [5] was “modest”.
With `N#Cc1ccccc1-c1cc(-c2ccccn2)cn(-c2ccccc2)c1=O` [perampanel, 2-(2-oxo-1-phenyl-5-pyridin-2-yl-1,2-dihydropyridin-3-yl)benzonitrile], in data set [1] (100 μM NMDA and 100 μM kainate), the “shape of the neuroprotective effect over concentration” value was “ceiling on the effect from lowest concentration showing neuroprotection”. The “protection of neuron from excitotoxicity induced by combination treatment with kainate and NMDA” value in data set [1] is on record as “protected neuron from excitotoxicity”.
